Experimental data from US5554378A, “Pharmaceutical composition and its mucosal use” (Takeda Chemical Industries, Ltd., priority 1990, dated 1996).

Assays:
[1] = Blood glucose after intranasal delivery of insulin to rats; type: in vivo, Male SD rats; settings: for Glucose (% relative to glucose level before administration): intranasal, insulin 10 U/kg, mean ± SE, n = 5 (SE in parentheses)
Protocol: (§1) Male SD rats (5 per group) weighing about 220 g were fasted for 16 hours. Under pentobarbital anaesthesia, the animals were prepared for intranasal therapy according to the procedure described in International Journal of Pharmaceutics 7, 317 (1981). Then, using a micropipet, 0.1 ml/kg of an insulin solution was directly administered into the nasal cavity and the blood was serially sampled from the tail vein for determination of blood glucose and insulin concentrations.
(§2) As said insulin solution, a solution of 10U of porcine insulin (about 0.38 mg) and 0 mg-5 mg of LThB (corresponding to 5%) in 0.1 ml of isotonic buffer (pH 7.4) was used.
(§3) Insulin dose: 10 U/Kg, SD rats, 7W, .male., 220 g
*% relative to glucose level before administration (mean ± SE, n = 5)

[2] = Plasma insulin level (EIA, GLAZYME Kit) after intranasal delivery of insulin to rats; type: in vivo, Male SD rats; settings: for Insulin (plasma insulin level): insulin 10 U/kg
Protocol: as §1, §2, §3
Plasma insulin level: EIA (GLAZYME Kit, Wako)

Substance | Glucose (% relative to glucose level before administration) ([1]; 0.5 hr) | Glucose (% relative to glucose level before administration) ([1]; 1.0 hr) | Glucose (% relative to glucose level before administration) ([1]; 1.5 hr) | Glucose (% relative to glucose level before administration) ([1]; 2.0 hr) | Glucose (% relative to glucose level before administration) ([1]; 3.0 hr) | Glucose (% relative to glucose level before administration) ([1]; 4.0 hr) | Insulin (plasma insulin level) ([2]; 0.5 hr) [μU/ml] | Insulin (plasma insulin level) ([2]; 1.0 hr) [μU/ml] | Insulin (plasma insulin level) ([2]; 1.5 hr) [μU/ml] | Insulin (plasma insulin level) ([2]; 2.0 hr) [μU/ml] | Insulin (plasma insulin level) ([2]; 3.0 hr) [μU/ml] | Insulin (plasma insulin level) ([2]; 4.0 hr) [μU/ml] | Absorption of insulin from the nasal mucosa (blood insulin concentration) ([2]; with addition of LThB) | Blood glucose level on addition of LThB, compared with the control (without LThB) ([1]; intranasal with insulin, vs control without LThB)
insulin, No addition: 10U of porcine insulin (about 0.38 mg) in 0.1 ml of isotonic buffer (pH 7.4), without LThB | 135.9 (10.5) % | 141.7 (8.6) % | 133.4 (11.2) % | 127.3 (9.1) % | 132.9 (11.4) % | 136.3 (13.5) % | 0.83 | 0.0 | 0.0 | 0.0 | 4.51 | 0.0 | effectively absorbed from the nasal mucosa | 
LThB |  |  |  |  |  |  |  |  |  |  |  |  |  | marked fall of blood glucose level
